Results reported in patent US8895568B2, “Compositions comprising substituted pteridines as agrochemicals” (Dow AgroSciences LLC, priority 2009, dated 2014).
Where two headings read alike, the source gives them in different places.

Columns and labels:
Assay type in all cases: in vivo
[1] = tested on: Pseudoperonospora cubensis; assay: Cucumber Downy Mildew (PSPECU), foliar spray, percent disease control; conditions: read-out: PSPECU percent control
Protocol: The activity of the compounds as effective fungicides was determined by applying the compounds to plants and observing control of fungal disease. The compounds were formulated at 200 ppm in 10 vol. % acetone plus 90 vol. % Triton X water (deionized water 99.99 wt %+0.01 wt % Triton X100), giving a “formulated test compound.” In a few cases, compounds were formulated at 75 or 8.3 ppm rather than 200 ppm in 10 vol. % acetone plus 90 vol. % Triton X water (deionized water 99.99 wt. %+0.01 wt. % Triton X100), giving a “formulated test compound.” Formulated test compounds were applied to plants using a turn table sprayer fitted with two opposing air atomization nozzles which delivered approximately 1500 L/ha of spray volume. All plants were inoculated with spores of the fungus the day after treatment, then incubated in an environment conducive to disease development. Disease severity was evaluated 4 to 15 days later, depending on the disease and the speed of disease development. The following experiments were performed in the laboratory to determine the fungicidal efficacy of the compounds of the invention. Cucumber Downy Mildew (causal agent Pseudoperonospora cubensis; Bayer code […]): Cucumber plants (variety Bush Champion) were grown from seed in a soil-less peat-based potting mixture (Metromix) until the first true leaf was 20-80% expanded. Each pot contained 1 seedling. These plants were sprayed until wet with the formulated test compound. On the following day, the leaves were inoculated with an aqueous suspension of downy mildew sporangia and the plants were kept in high humidity for one day to permit sporangia to germinate and infect the leaf. The plants were then incubated in a growth chamber until disease developed on untreated control plants. […] The effectiveness of the test compounds at controlling disease when sprayed on leaves was determined by assessing the severity of disease on treated plants, then converting the severity to percent control based on the level of disease on untreated, inoculated plants. Data are the level (in percent) at which the given disease was controlled when the given compound was applied to the foliage of the plants at 200 ppm. In a few cases (noted in the table) the compound was applied to the plants at 75 ppm or 8.3 ppm.

[2] = tested on: Colletotricum lagenarium; assay: Cucumber Anthracnose (COLLLA), foliar spray, percent disease control
Protocol: The activity of the compounds as effective fungicides was determined by applying the compounds to plants and observing control of fungal disease. The compounds were formulated at 200 ppm in 10 vol. % acetone plus 90 vol. % Triton X water (deionized water 99.99 wt %+0.01 wt % Triton X100), giving a “formulated test compound.” In a few cases, compounds were formulated at 75 or 8.3 ppm rather than 200 ppm in 10 vol. % acetone plus 90 vol. % Triton X water (deionized water 99.99 wt. %+0.01 wt. % Triton X100), giving a “formulated test compound.” Formulated test compounds were applied to plants using a turn table sprayer fitted with two opposing air atomization nozzles which delivered approximately 1500 L/ha of spray volume. All plants were inoculated with spores of the fungus the day after treatment, then incubated in an environment conducive to disease development. Disease severity was evaluated 4 to 15 days later, depending on the disease and the speed of disease development. The following experiments were performed in the laboratory to determine the fungicidal efficacy of the compounds of the invention. Cucumber Anthracnose (causal agent Colletotricum lagenarium; Bayer code COLLLA): Cucumber plants (variety Bush Champion) were grown from seed in a soil-less peat-based potting mixture (Metromix) until the first true leaf was 20-80% expanded. Each pot contained 1 seedling. These plants were sprayed until wet with the formulated test compound. On the following day, the leaves were inoculated with an aqueous spore suspension of Colletotricum lagenarium and the plants were kept in high humidity for one day to permit spores to germinate and infect the leaf. The plants were then transferred to a growth chamber until disease developed on untreated control plants. […] The effectiveness of the test compounds at controlling disease when sprayed on leaves was determined by assessing the severity of disease on treated plants, then converting the severity to percent control based on the level of disease on untreated, inoculated plants. Data are the level (in percent) at which the given disease was controlled when the given compound was applied to the foliage of the plants at 200 ppm. In a few cases (noted in the table) the compound was applied to the plants at 75 ppm or 8.3 ppm.

[3] = tested on: Cochliobolus sativus; assay: Spot Blotch of Wheat (COCHSA), foliar spray, percent disease control
[4] = Bipolaris sorokiniana, foliar; read-out: COCHSA percent control
[5] = Bipolaris sorokiniana, foliar, read-out: COCHSA percent control

Structure (SMILES): CC(F)(F)c1ccnc(Oc2ccc(CCNc3ncnc4nccnc34)cc2O)c1 [Compound 197, 2-[4-(1,1-Difluoroethyl)-pyridin-2-yloxy]-5-[2-(pteridin-4-ylamino)-ethyl]-phenol]
- pest or weed control at 200 µg/mL ([1]; foliar): 80 to 100%
- pest or weed control at 200 µg/mL ([2]; foliar): 0 to 49%
- pest or weed control at 200 µg/mL [3, 4]: 0 to 49%

Structure (SMILES): COc1cc(C(F)(F)F)cc(Oc2ccc(CCNc3ncnc4nccnc34)cc2F)n1 [Compound 185]
- pest or weed control at 200 µg/mL ([1]; foliar): 80 to 100%
- pest or weed control at 200 µg/mL ([2]; foliar): 0 to 49%
- pest or weed control at 200 µg/mL [3, 4]: 0 to 49%

Structure (SMILES): CC(C)(C)[Si](C)(C)Oc1ccc(CCNc2ncnc3nccnc23)cc1 [Compound 133, {2-[4-(tert-Butyldimethylsilanyloxy)-phenyl]-ethyl}-pteridin-4-yl-amine]
- pest or weed control at 200 µg/mL ([1]; foliar): 80 to 100%
- pest or weed control at 200 µg/mL ([2]; foliar): 0 to 49%
- pest or weed control at 200 µg/mL [3, 5]: 0 to 49%

Structure (SMILES): c1ccc(-c2nsc(Oc3ccc(CCNc4ncnc5nccnc45)cc3)n2)cc1 [Compound 22]
- pest or weed control at 200 µg/mL ([1]; foliar): 50 to 79%
- pest or weed control at 200 µg/mL ([2]; foliar): 50 to 79%
- pest or weed control at 200 µg/mL [3, 4]: 0 to 49%

Structure (SMILES): COC(=O)c1ccnc(Oc2ccc(CCNc3ncnc4nccnc34)cc2)c1 [Compound 135]
- pest or weed control at 200 µg/mL ([1]; foliar): 80 to 100%
- pest or weed control at 200 µg/mL ([2]; foliar): 0 to 49%
- pest or weed control at 200 µg/mL [3, 4]: 0 to 49%

Structure (SMILES): COc1ccnc(Oc2ccc(CCNc3ncnc4nccnc34)cc2)n1 [Compound 16]
- pest or weed control at 200 µg/mL ([1]; foliar): 80 to 100%
- pest or weed control at 200 µg/mL ([2]; foliar): 0 to 49%
- pest or weed control at 200 µg/mL [3, 4]: 0 to 49%

Structure (SMILES): [O-][n+]1ccnc(Oc2ccc(CCNc3ncnc4nccnc34)cc2)c1 [Compound 29]
- pest or weed control at 200 µg/mL ([1]; foliar): 80 to 100%
- pest or weed control at 200 µg/mL ([2]; foliar): 0 to 49%
- pest or weed control at 200 µg/mL [3, 4]: 0 to 49%

Structure (SMILES): Ic1ccnc(Oc2cccc(CCNc3ncnc4nccnc34)c2)c1 [Compound 74]
- pest or weed control at 200 µg/mL ([1]; foliar): 80 to 100%
- pest or weed control at 200 µg/mL ([2]; foliar): 0 to 49%
- pest or weed control at 200 µg/mL [3, 4]: 0 to 49%

Structure (SMILES): CCOc1cc(CCNc2ncnc3nccnc23)ccc1Oc1cc(C(C)C)ccn1 [Compound 205]
- pest or weed control at 200 µg/mL ([1]; foliar spray): 80 to 100%
- pest or weed control at 200 µg/mL ([2]; foliar spray): 0 to 49%
- pest or weed control at 200 µg/mL ([3]; Bipolaris sorokiniana; foliar spray; read-out: COCHSA percent control): 0 to 49%

Structure (SMILES): CC(F)(F)c1ccnc(Oc2ccc(CCNc3ncnc4nccnc34)cc2F)c1 [Compound 193]
- pest or weed control at 200 µg/mL ([1]; foliar): 80 to 100%
- pest or weed control at 200 µg/mL ([2]; foliar): 0 to 49%
- pest or weed control at 200 µg/mL [3, 4]: 0 to 49%

Structure (SMILES): Cc1cnc2ncnc(NCCc3ccc(O)cc3)c2n1 [Compound 38]
- pest or weed control at 200 µg/mL ([1]; foliar): 0 to 49%
- pest or weed control at 200 µg/mL ([2]; foliar): 0 to 49%
- pest or weed control at 200 µg/mL [3, 4]: 0 to 49%

Structure (SMILES): COc1cc(C(F)(F)F)cc(Oc2ccc(CCNc3ncnc4nccnc34)cc2OC)n1 [Compound 178]
- pest or weed control at 200 µg/mL ([1]; foliar): 0 to 49%
- pest or weed control at 200 µg/mL ([2]; foliar): 0 to 49%
- pest or weed control at 200 µg/mL [3, 4]: 0 to 49%

Structure (SMILES): COc1nsc(Oc2ccc(CCNc3ncnc4nccnc34)cc2)n1 [Compound 21]
- pest or weed control at 200 µg/mL ([1]; foliar): 50 to 79%
- pest or weed control at 200 µg/mL ([2]; foliar): 50 to 79%
- pest or weed control at 200 µg/mL [3, 4]: 0 to 49%

Structure (SMILES): N#Cc1nccnc1Oc1ccc(CCNc2ncnc3nccnc23)cc1 [Compound 18]
- pest or weed control at 200 µg/mL ([1]; foliar): 80 to 100%
- pest or weed control at 200 µg/mL ([2]; foliar): 0 to 49%
- pest or weed control at 200 µg/mL [3, 4]: 0 to 49%

Structure (SMILES): Oc1ccc(CCNc2ncnc3nccnc23)cc1 [Compound 4, 4-[2-(Pteridin-4-ylamino)-ethyl]-phenol]
- pest or weed control at 200 µg/mL ([1]; foliar): 0 to 49%
- pest or weed control at 200 µg/mL ([2]; foliar): 0 to 49%
- pest or weed control at 200 µg/mL [3, 4]: 0 to 49%

Structure (SMILES): CC(C)(C)OC(=O)N(CCc1ccc(O[Si](C)(C)C(C)(C)C)cc1)c1ncnc2nccnc12 [Compound 134, {2-[4-(tert-Butyldimethylsilanyloxy)-phenyl]-ethyl}-pteridin-4-yl-carbamic acid tert-butyl ester]
- pest or weed control at 200 µg/mL ([1]; foliar): 0 to 49%
- pest or weed control at 200 µg/mL ([2]; foliar): 0 to 49%
- pest or weed control at 200 µg/mL [3, 5]: 0 to 49%
